Experimental data taken from patent US20260272936A1, “TREATMENT OF CANCER WITH A PARG INHIBITOR” (858 Therapeutics, Inc., priority 2023, published 2026).

What was measured:
human recombinant PARG = target: T1, human recombinant PARG (Homo sapiens, UniProt Q86W56); assay: HTRF assay of PARG enzymatic activity with PARylated-PARP1 substrate; type: biochemical; conditions: geometric mean, n=14
T1 construct: Human PARG (amino acids 389-976; Uniprot ID Q86W56-1); 6xHis (N, cleaved yes); TEV cleavage site (N, cleaved yes); made in house; host or cells: PARG: E. coli BL21 (DE3); PARP1 substrate: High Five insect cells (baculovirus)

[1] = target: T2, human recombinant PARG (AA 389-976) (Homo sapiens, UniProt Q86W56); assay: Surface plasmon resonance (SPR) direct binding
T2 construct: His-tagged human recombinant PARG (AA 389-976) was coupled to a CM5 biosensor chip; made in house; host or cells: E. coli BL21 (DE3), pET28a

[2] = tested on: T025OV ovarian cancer patient-derived organoid; assay: 7-day organoid colony formation, ATP content (Cell Titer Glo 3D); type: cell-based; conditions: Homo sapiens, 168 h, T025OV PDO, 7 days, geometric mean
Excerpt: The FU-97 (Cat #JCRB1074) human gastric cancer cell line and the Kuramochi (Cat #JCRB0098) and RMUG-S(Cat #IFO50320) human ovarian cancer cell lines were obtained from the National Institutes of Biomedical Innovation, Health and Nutrition's Japanese Collection of Research Bioresources (JCRB) (Ibaraki City, Osaka, Japan). The HCC1419 (Cat #CRL-2326) and HCC1428 (Cat #CRL-2327) human breast cancer cell lines and the NCI-H1650 (Cat #CRL-5883) and NCI-H1792 (Cat #CRL-5895) non-small cell lung cancer cell lines were obtained from ATCC (Manassas, Virginia, USA). The human gastric cancer cell lines GCIY (Cat #RCB0555) and SNU601 (Cat #CSC-C9686L) were obtained from the Riken Bioresource Research Center (Tsukuba, Ibaraki, Japan) and Creative Bioarray (Shirley, NY, USA), respectively. The T025OV ovarian cancer organoid model was developed from a patient-derived xenograft (PDX) model, which was developed from primary serous ovarian carcinoma cells obtained from Discovery Life Sciences (Huntsville, AL, USA, SN #350627149). […]
Compound 1 IC50 values for inhibition of organoid colony formation were determined by measuring ATP levels after 7 days of treatment utilizing Cell Titer Glo 3D reagent (Promega, Madison, WI, USA Cat #G9683). […] Luminescence values (RLU) were read-out using a Clariostar plate reader (BMG Labtech, Cary, NC). […]

T2 sequence (Q86W56 389-976): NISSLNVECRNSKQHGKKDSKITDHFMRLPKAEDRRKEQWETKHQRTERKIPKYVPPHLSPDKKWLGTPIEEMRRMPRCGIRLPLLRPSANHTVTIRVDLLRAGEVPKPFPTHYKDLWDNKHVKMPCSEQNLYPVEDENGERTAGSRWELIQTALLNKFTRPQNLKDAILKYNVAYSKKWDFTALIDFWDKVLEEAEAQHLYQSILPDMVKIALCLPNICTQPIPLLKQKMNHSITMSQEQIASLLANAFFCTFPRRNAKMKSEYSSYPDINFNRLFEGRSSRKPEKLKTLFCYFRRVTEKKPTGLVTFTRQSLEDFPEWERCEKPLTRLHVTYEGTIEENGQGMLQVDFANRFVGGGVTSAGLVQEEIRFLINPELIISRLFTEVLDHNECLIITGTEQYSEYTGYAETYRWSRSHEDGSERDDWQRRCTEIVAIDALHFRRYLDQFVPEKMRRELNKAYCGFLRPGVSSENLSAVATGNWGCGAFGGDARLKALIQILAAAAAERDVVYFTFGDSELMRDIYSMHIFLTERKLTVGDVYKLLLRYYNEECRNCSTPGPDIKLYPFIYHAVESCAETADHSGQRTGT
T1 sequence (Q86W56 389-976): as above

`[2H]C([2H])(c1cnn(C)c1)N1C(=O)c2cc(S(=O)(=O)NC3(C)CC3)ccc2N2C1=NC[C@H]2C` [Compound 1, (R)-1-methyl-4-((1-methyl-1H-pyrazol-4-yl)methyl-d2)-N-(1-methylcyclopropyl)-5-oxo-1,2,4,5-tetrahydroimidazo[1,2-a]quinazoline-7-sulfonamide] was tested, and the IC50 (human recombinant PARG) was 85 nM, the Kd ([1]; SPR kinetic KD, 1:1 binding, 25° C., mean n=2) was 1.1 nM and the “Rmax (Relative Units)” value ([1]; relative amount of PARG bound by Compound 1) was 15.9 Relative Units. For the same compound, the “Theoretical Rmax” value ([1]; total amount of PARG immobilized on the biosensor chip) was 19.8, the IC50 ([2]; read-out: IC50 inhibition of ATP content) was 1070 nM and the IC90 ([2]; read-out: IC90 inhibition of ATP content) was 10700 nM.
